Measured values published in patent publication US20050202032A1, “Use of neglected target tissue antigens in modulation of immune responses” (The Regents of the University of California, priority 1998, published 2005).

Tests used:
[1] = tested on: splenic T cells of NOD mice; assay: T cell proliferation: immunogenicity and spontaneous recall responses to candidate NTTA peptides (Example 4); format: cell-based; conditions: peptide used as the immunizant; FIG. 4
Description: T-cell proliferation assays. Female NOD mice were injected i.p. at 8 weeks of age with 100 μg antigen, or control β-galactosidase, in 100 μl of 50% IFA. The mice were reinjected 2 weeks later. At 12 weeks of age, splenic T-cells were tested for proliferative responses to GAD65, hsp277, β-galactosidase and the HEL peptide, as previously described.
Transgenic animal models have shown that neoantigens which are expressed at low levels in peripheral tissues often have little impact on T cell education and elicit strong immune responses after immunization (4-8). Identifying NTTAs that were specifically expressed in the β cells at low levels was therefore preferred. The DNA sequence banks were screened for cDNA sequences isolated from mouse β cell subtraction libraries. Mouse cDNA sequences were selected from both known and unknown β cell cDNAs and from both β-cell specific and ubiquitous antigens, some of which appeared to be expressed only at low levels specifically in β cells. Other cDNAs that were expressed at higher levels in the β cells, or in other tissues were selected by Northern analysis for comparison purposes. From the open reading frames of the candidate cDNAs we synthesized a dozen peptides which contained a consensus NOD class II MHC binding motif (54, 55). We identified 4 peptides (sequences provided above) from 3 different mouse B cell proteins that were immunogenic in NOD mice (FIG. 4).
The remaining peptides tested were peptide 1, a 15mer from calbindin having the sequence EEFMKTWRKYDTDHS; • peptide 3, also a 15mer from calbindin having the sequence LKDLCEKNKQELDIN; • peptide 5, a 15mer from clone 38 in turn derived from a beta cell specific cDNA library (Neophytou, P. et al Diabetes, 45:127, 1996) having the sequence ILKMDHHCPWVNNCV; and • peptide 8 from islet amyloid polypeptide having the sequence GKRNAAGDPNRESLDFL.
In addition, using a set of overlapping GAD peptides, two GAD peptides have been identified which are immunogenic in NOD mice (GADp18 and GADp27; sequences provided under ANTIGENS, above) but which are ignored by their spontaneous autoimmune responses (data not shown). […] These conclusions can be used to advantage for the development of human NTTAs as immunotherapeutics for autoimmune disease, and other abnormal inflammatory immune responses.

[2] = tested on: splenic T cells of NOD mice; assay: as above; format: cell-based; conditions: at any stage of NOD mouse development, no immunization
[3] = tested on: antigen-specific T cells within islet infiltrates; assay: ELISPOT of single antigen-specific T cells from pancreatic islet infiltrates (Example 11); format: cell-based, NOD mice
Description: (§1) ELISPOT analysis. At a specified time, mice received a single i.p. injection of 100 μg β-galactosidase or GAD65 or other specified antigen in 50% IFA. Fourteen days later, splenic T-cells were isolated and the frequency of β-galactosidase and GAD65-specific T-cells secreting IL-4, IL-5 and IFN-γ was determined by using the ELISPOT technique as described (Forsthuber, T., et al., Science, 271:1728, 1996), with the exception that the treating antigen and β-galactosidase (100 μg/ml) were used as antigens, and 11B11 together with biotinylated BVD6-24G2 (PharMingen, San Diego, Calif.) was used for capture and detection of IL-4. The resulting spots were counted manually.
Monocytes were isolated from islets of 10-week old female NOD mice. 1000, 100 or 10 monocytes were mixed with 1 million irradiated splenic T cells and tested for IFNγ and IL-5 responses to B cell autoantigens, as well as control antigens, by ELISPOT.

NOD mice = conditions: intraperitoneally in incomplete Freund's adjuvant early in the NOD mouse disease process (ref 1); cited from earlier work
female NOD mice = assay: IDDM incidence in NOD mice treated at six weeks (Example 6); format: in vivo; conditions: 100 μg ip in IFA at six weeks, boosted once 10 days later; FIGS. 6 and 7
Description: IDDM incidence. At specified times, groups of 10 female NOD mice were injected i.p. with 50 μg antigen or control β-galactosidase in 100 μl of 50% IFA. Another control group received 100 μl of 50% IFA alone. Because there may be a requirement for continual antigen presentation, the mice were reinjected every 6 weeks until 40 weeks of age. Urine glucose levels were monitored weekly for diabetes by Tes-tape (Lilly, Indianapolis, Ind.). After we observed abnormal glucose in the urine, blood glucose levels were monitored twice weekly. A recording of two consecutive blood glucose levels of greater than 13 mmol/l was considered as IDDM onset.
Groups of six weeks old female NOD mice were treated with either the control MSA (MSA 560-574) peptide, or a peptide containing a βCAA target determinant (GADp35, GADp34, HSP 277 or insulin B-chain), or a NTTA peptide #2, 4, 6 or 7 (in each case 100 μg ip in IFA)). The mice were boosted once 10 days later. All mouse groups were injected concurrently and housed in the same SPF room. […] An average of 70% of the mice treated with a βCAA target determinant developed IDDM by 40 weeks in age. Two consecutive blood glucose levels of […] was considered disease onset. N=10 for each group.
An average of 40% of the NOD mice treated with different NTTAs developed IDDM by 40 weeks in age. […]

[4] = tested on: splenic T cells of treated NOD mice; assay: ELISPOT of Th1/Th2 responses after neonatal autoantigen treatment (Example 8); format: cell-based; conditions: treated neonatally 100 μg i.p. in IFA, tested at 4 weeks in age; FIG. 10
Description: as §1
The data are represented as the mean number of spot forming colonies per million splenic T cells above background. The variation within, each group was <15%. Experimental and control mice were tested simultaneously (in triplicate) in two separate experiments (n=5/group).

[5] = tested on: diabetic NOD mice with transplanted syngeneic islets; assay: Transplantation of syngeneic islets into diabetic NOD mice (Example 2); format: in vivo; conditions: antigen i.p. in IFA to recipient diabetic NOD mice prior to transplantation; FIG. 1
Description: Transplantation of islets. Female NOD mice were monitored for the onset of IDDM, after which the mice were maintained on 1.0 to 1.5 units insulin (Humulin U, Lilly) per day. At the time of IDDM onset, mice were injected with either 100 μg of GAD65, hsp277, insulin B-chain or control β-galactosidase i.p. in 50% IFA. Ten days later, the mice were reinjected. Ten days after the second treatment, 3000 freshly isolated islets from newborn NOD mice were transplanted into the space beneath the kidney capsule, and Humulin administration was discontinued. The mice were reinjected every two weeks. Recurrence of diabetes is defined as two consecutive blood glucose levels of greater than 13 mmol/l.
Based on the ability of autoantigen treatment to inhibit disease in pre-diabetic NOD mice with (1) we tested whether this treatment could also protect transplanted syngeneic β cells from the established autoimmune responses in diabetic NOD mice. Islets were transplanted into diabetic NOD mice that had been treated with β-galactosidase. […] The results are shown in FIG. 1, wherein data are presented as time post-transplantation at which hyperglycemia recurred. These findings correlate with the extent to which each autoantigen was able to promote Th2 immunity in newly hyperglycemic animals (see Example 3, below).

[6] = tested on: irradiated young NOD mice receiving T cells from diabetic NOD mice; assay: Adoptive transfer of IDDM (Example 5); format: in vivo; conditions: cells from treated mice co-transferred with T cells from diabetic NOD mice
Description: Adoptive transfer of diabetes. At a specified time, NOD mice were injected i.p. with 100 μg GAD65 (or other specified antigen) or control β-galactosidase in 100 μl of 50% IFA and reinjected at 14 weeks of age. Five weeks later, single-cell suspensions of splenic mononuclear cells were prepared from each group, as well as from unmanipulated diabetic NOD mice. Ten million splenic mononuclear cells from the unmanipulated diabetic mice were mixed with an equal number of splenic mononuclear cells from GAD65 β-galactosidase-treated mice and injected intravenously into 5-week-old female NOD mice that had received 500 rad-γ-irradiation. Another control group received […] splenic mononuclear cells obtained only from unmanipulated diabetic mice.
Splenic T cells from NTTA peptide treated mice were co-transferred with T cells from diabetic NOD mice into irradiated young NOD mice. All of the mice which received cells from mice treated with a control immunogenic mouse serum albumin peptide (MSA 560-574) developed IDDM within 5 weeks. […] Thus, NTTAs are capable of inducing adoptively transferable regulatory responses which can down-regulate pathogenic T cells.

[7] = tested on: T cell clones from immunized NOD mice; assay: Cytokine secretion of NTTA- and GADp35-reactive T cell clones (Example 9); format: cell-based; conditions: ELISPOT and antigen-stimulated culture supernatants
Description: NOD mice were immunized with a NTTA peptide or GADp35 in incomplete Freund's adjuvant (IFA). Two weeks later lymph node and splenic T cells were cultured with antigen, IL-2 and IL-4 together with irradiated NOD splenic cells and T cell clones were generated by limiting dilution. A NTTA 7 and a GADp35-reactive clone were characterized by ELISPOT and analysis of antigen-stimulated culture supernatants. Both clones secreted IL-4, and no IFN-γ in response to the corresponding antigen. Thus, these T cell clones appear to be Th2-type.

[8] = 100 islet monocytes mixed with 1 million irradiated splenic T cells
[9] = 1,000 islet monocytes mixed with 1 million irradiated splenic T cells, 10-week old female NOD mice

| Molecule | immunogenicity in NOD mice (proliferative T cell response after immunization) [1] | spontaneous proliferative splenic T cell recall responses [2] | other results |
| --- | --- | --- | --- |
| EEFMKTWRKYDTDHS [peptide 1] | did not contain determinants |  |  |
| ELKNFLKDLLEKANKTVDDT (homo sapiens) [Peptide 2] | immunogenic | did not detect |  |
| GKRNAAGDPNRESLDFL [peptide 8, from islet amyloid polypeptide] | did not contain determinants |  |  |
| ILKMDHHCPWVNNCV [peptide 5, 15mer from clone 38] | did not contain determinants |  |  |
| Insulin B-chain [reference compound] |  |  | IFNγ responses, number of T cells [3, 8]: 6; IFNγ responses, number of T cells [3, 9]: 50; protection from IDDM (NOD mice): highly protective; protection from disease / disease incidence (female NOD mice): non-significant trend toward protection; Th2 and Th1 responses to the injected autoantigen [4]: both Th2 and Th1 responses; syngeneic islet graft survival (recurrence of hyperglycemia) [5]: lacked any protective effect |
| LIKPDRCHHCSVCDKC (homo sapiens) [Peptide 4] | immunogenic | did not detect |  |
| LKDLCEKNKQELDIN [peptide 3] | did not contain determinants |  |  |
| MSA 560-574: control immunogenic mouse serum albumin peptide 560-574 (KPKATAEQLKTVMDD) |  |  | time by which all recipient mice developed IDDM [6]: ≤ 5 weeks |
| NHLRATPVRSGSNPQ (homo sapiens) [Peptide 6] | immunogenic | did not detect |  |
| PEVKEKGMAAVPRLIAFTSE (homo sapiens) [GADp18] | immunogenic | ignored |  |
| PLQCSALLVREEGLMQSCNQ (homo sapiens) [GADp27] | immunogenic | ignored |  |
| TQRLANFLVRSSNNL (homo sapiens) [Peptide 7] | immunogenic | did not detect | IFN-γ secretion of reactive T cell clone in response to the corresponding antigen [7]: no; IL-4 secretion of reactive T cell clone in response to the corresponding antigen [7]: secreted |
| GAD: Mouse GAD65, glutamic acid decarboxylase, β cell autoantigen (protein, UniProt P48320 1-585, looked up) Glutamate decarboxylase 2: MASPGSGFWSFGSEDGSADPENPGTARAWCQVAQKFTGGIGNKLCALLYGDSGKPAEGGGSVTSRAATGKVACTCDQKPCNCPKGDVNYAFLHATDLLPACDGERPTLAFLQDVMNILLQYVVKSFDRSTKVIDFHYPNELLQEYNWELADQPQNLEEILTHCQTTLKYAIKTGHPRYFNQLSTGLDMVGLAADWLTSTANTNMFTYEIAPVFVLLEYVTLKKMREIIGWPGGSGDGIFSPGGAISNMYAMLIARYKMFPEVKEKGMAAVPRLIAFTSEHSHFSLKKGAAALGIGTDSVILIKCDERGKMIPSDLERRILEVKQKGFVPFLVSATAGTTVYGAFDPLLAVADICKKYKIWMHVDAAWGGGLLMSRKHKWKLSGVERANSVTWNPHKMMGVPLQCSALLVREEGLMQSCNQMHASYLFQQDKHYDLSYDTGDKALQCGRHVDVFKLWLMWRAKGTTGFEAHIDKCLELAEYLYTIIKNREGYEMVFDGKPQHTNVCFWFVPPSLRTLEDNEERMSRLSKVAPVIKARMMEYGTTMVSYQPLGDKVNFFRMVISNPAATHQDIDFLIEEIERLGQDL |  |  | IFNγ responses, number of T cells [3, 8]: 15; IFNγ responses, number of T cells [3, 9]: 123; protection from IDDM (NOD mice): highly protective; Th2 and Th1 responses to the injected autoantigen [4]: both Th2 and Th1 responses; syngeneic islet graft survival (recurrence of hyperglycemia) [5]: greatly extended syngeneic islet graft survival |
